Reference: patent publication US20260262643A1, “HERBICIDAL BENZOXAZINES” (FMC CORPORATION, priority 2022, published 2026)

Legend:
foxtail, giant [1] = assay: Test A postemergence; assay type: in vivo, Setaria faberi
In short: (§1)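 Visual injury ratings on a 0–100 scale (100 = complete control) versus untreated controls, taken 10 days after treatment in greenhouse. Preemergence: directed soil spray onto seeded loam/sand. Postemergence: foliar application at one- to two-leaf stage, plants 2–10 cm. Formulation: non-phytotoxic solvent plus surfactant.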

oat, wild [2] = assay: Test A preemergence; assay type: in vivo, Avena fatua
Source text: Seeds of plant species selected from barnyardgrass (Echinochloa crusgalli), blackgrass (Alopecurus myosuroides), corn (Zea mays), foxtail, giant (giant foxtail, Setaria faberi), goosegrass (Eleusine indica), kochia (Bassia scoparia), oat, wild (wild oat, Avena fatua), pigweed, palmer (palmer amaranth, palmer pigweed, Amaranthus palmeri), Pigweed, Redroot (redroot pigweed, Amaranthus retroflexus), ragweed (common ragweed, Ambrosia artemisiifolia), ryegrass, Italian (italian ryegrass, Lolium multiflorum), soybean (Glycine max), and wheat (Triticum aestivum) were planted into a blend of loam soil and sand and treated preemergence with a directed soil spray using test chemicals formulated in a non-phytotoxic solvent mixture which included a surfactant. At the same time, plants selected from these crops and weed species and also galium (catchweed bedstraw, Galium aparine) and horseweed (Erigeron canadensis) were planted in pots containing the same blend of loam soil and sand and treated with postemergence applications of test chemicals formulated in the same manner. Plants ranged in height from 2 to 10 cm and were in the one- to two-leaf stage for the postemergence treatment. Treated plants and untreated controls were maintained in a greenhouse for 10 days, after which time all treated plants were compared to untreated controls and visually evaluated for injury. Plant response ratings, summarized in Table A, are based on a 0 to 100 scale where 0 is no effect and 100 is complete control. A dash (-) response means no test result.

blackgrass [3] = assay: Test A postemergence; assay type: in vivo, Alopecurus myosuroides
In short: as §1

goosegrass [4] = assay: Test A postemergence; assay type: in vivo, Eleusine indica
In short: as §1

kochia [5] = assay: Test A postemergence; assay type: in vivo, Bassia scoparia
In short: as §1

ragweed [6] = assay: Test A postemergence; assay type: in vivo, Ambrosia artemisiifolia
In short: as §1

barnyardgrass = assay: Test B flooded paddy test; assay type: in vivo, Echinochloa crus-galli; conditions: 250 g ai/ha, Flood, 13 days, 0 to 100 scale (0 no effect, 100 complete control)
In short: (§2)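 Two-leaf plants, 3 cm flood, in-water application, 13-day greenhouse hold, visual 0–100 rating vs untreated checks.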

corn [7] = assay: Test A preemergence; assay type: in vivo, Zea mays
In short: as §1

soybean [8] = assay: Test A preemergence; assay type: in vivo, Glycine max
In short: as §1

pigweed, palmer [9] = assay: Test A preemergence; assay type: in vivo, Amaranthus palmeri
In short: as §1

ryegrass, Italian [10] = assay: Test A postemergence; assay type: in vivo, Lolium multiflorum
In short: as §1

rice = assay: Test B flooded paddy test; assay type: in vivo, Oryza sativa; conditions: 250 g ai/ha, Flood, 13 days, 0 to 100 scale (0 no effect, 100 complete control)
In short: as §2

wheat [11] = assay: Test A preemergence; assay type: in vivo, Triticum aestivum
In short: as §1

sedge, umbrella = assay: Test B flooded paddy test; assay type: in vivo, Cyperus difformis; conditions: 250 g ai/ha, Flood, 13 days, 0 to 100 scale (0 no effect, 100 complete control)
In short: as §2

wheat [12] = assay: Test A postemergence; assay type: in vivo, Triticum aestivum
In short: as §1

corn [13] = assay: Test A postemergence; assay type: in vivo, Zea mays
In short: as §1

ragweed [14] = assay: Test A preemergence; assay type: in vivo, Ambrosia artemisiifolia
In short: as §1

kochia [15] = assay: Test A preemergence; assay type: in vivo, Bassia scoparia
In short: as §1

ducksalad = assay: Test B flooded paddy test; assay type: in vivo, Heteranthera limosa; conditions: 250 g ai/ha, Flood, 13 days, 0 to 100 scale (0 no effect, 100 complete control)
In short: as §2

galium = assay: Test A postemergence; assay type: in vivo, Galium aparine
In short: as §1

oat, wild [16] = assay: Test A postemergence; assay type: in vivo, Avena fatua
In short: as §1

goosegrass [17] = assay: Test A preemergence; assay type: in vivo, Eleusine indica
In short: as §1

foxtail, giant [18] = assay: Test A preemergence; assay type: in vivo, Setaria faberi
In short: as §1

blackgrass [19] = assay: Test A preemergence; assay type: in vivo, Alopecurus myosuroides
In short: as §1

ryegrass, Italian [20] = assay: Test A preemergence; assay type: in vivo, Lolium multiflorum
In short: as §1

pigweed, palmer [21] = assay: Test A postemergence; assay type: in vivo, Amaranthus palmeri
In short: as §1

soybean [22] = assay: Test A postemergence; assay type: in vivo, Glycine max
In short: as §1

[23] = 125 g ai/ha, postemergence, 10 days, visual injury, 0 to 100 scale (0 no effect, 100 complete control)
[24] = 500 g ai/ha, Postemergence, 0 to 100 scale
[25] = 125 g ai/ha, visual injury after 10 days, 0 to 100 scale, 0 is no effect, 100 is complete control
[26] = 500 g ai/ha, 0 to 100 scale (0 no effect, 100 complete control), 10 days

Cc1cc(F)cc2c1OC(C)CN2C(=O)c1cccc(-n2cncn2)c1 (stereo not shown) [Compound 44]
Plant response rating, Foxtail, Giant (foxtail, giant [1]; [23]): 40
Plant response rating, Foxtail, Giant (foxtail, giant [1]; [24]): 90
Plant response rating, Oat, Wild (oat, wild [2]; [25]): 10
Plant response rating, Oat, Wild (oat, wild [2]; [26]): 50
Plant response rating, Blackgrass (blackgrass [3]; [23]): 30
Plant response rating, Blackgrass (blackgrass [3]; [24]): 60
Plant response rating, Goosegrass (goosegrass [4]; [23]): 30
Plant response rating, Goosegrass (goosegrass [4]; [24]): 70
Plant response rating, Kochia (kochia [5]; [23]): 10
Plant response rating, Kochia (kochia [5]; [24]): 20
Plant response rating, Ragweed (ragweed [6]; [23]): 0
Plant response rating, Ragweed (ragweed [6]; [24]): 0
Plant response rating, Barnyardgrass (barnyardgrass): 0
Plant response rating, Corn (corn [7]; [25]): 10
Plant response rating, Corn (corn [7]; [26]): 30
Plant response rating, Soybean (soybean [8]; [25]): 40
Plant response rating, Soybean (soybean [8]; [26]): 70
Plant response rating, Pigweed, Palmer (pigweed, palmer [9]; [25]): 10
Plant response rating, Pigweed, Palmer (pigweed, palmer [9]; [26]): 20
Plant response rating, Ryegrass, Italian (ryegrass, Italian [10]; [23]): 50
Plant response rating, Ryegrass, Italian (ryegrass, Italian [10]; [24]): 80
Plant response rating, Rice (rice): 0
Plant response rating, Wheat (wheat [11]; [25]): 0
Plant response rating, Wheat (wheat [11]; [26]): 40
Plant response rating, Sedge, Umbrella (sedge, umbrella): 0
Plant response rating, Wheat (wheat [12]; [23]): 30
Plant response rating, Wheat (wheat [12]; [24]): 80
Plant response rating, Corn (corn [13]; [23]): 30
Plant response rating, Corn (corn [13]; [24]): 70
Plant response rating, Ragweed (ragweed [14]; [25]): 0
Plant response rating, Ragweed (ragweed [14]; [26]): 0
Plant response rating, Kochia (kochia [15]; [25]): 0
Plant response rating, Kochia (kochia [15]; [26]): 20
Plant response rating, Ducksalad (ducksalad): 0
Plant response rating, Galium (galium; [23]): 50
Plant response rating, Galium (galium; [24]): 70
Plant response rating, Oat, Wild (oat, wild [16]; [23]): 0
Plant response rating, Oat, Wild (oat, wild [16]; [24]): 80
Plant response rating, Goosegrass (goosegrass [17]; [25]): 90
Plant response rating, Goosegrass (goosegrass [17]; [26]): 100
Plant response rating, Foxtail, Giant (foxtail, giant [18]; [25]): 70
Plant response rating, Foxtail, Giant (foxtail, giant [18]; [26]): 100
Plant response rating, Blackgrass (blackgrass [19]; [25]): 10
Plant response rating, Blackgrass (blackgrass [19]; [26]): 80
Plant response rating, Ryegrass, Italian (ryegrass, Italian [20]; [25]): 80
Plant response rating, Ryegrass, Italian (ryegrass, Italian [20]; [26]): 100
Plant response rating, Pigweed, Palmer (pigweed, palmer [21]; [23]): 30
Plant response rating, Pigweed, Palmer (pigweed, palmer [21]; [24]): 10
Plant response rating, Soybean (soybean [22]; [23]): 100
Plant response rating, Soybean (soybean [22]; [24]): 100

CC1CN(C(=O)c2cccc(-n3cncn3)c2)c2cc(F)cc(F)c2O1 (stereo not shown) [Compound 45]
Plant response rating, Foxtail, Giant (foxtail, giant [1]; [23]): 20
Plant response rating, Foxtail, Giant (foxtail, giant [1]; [24]): 90
Plant response rating, Oat, Wild (oat, wild [2]; [25]): 0
Plant response rating, Oat, Wild (oat, wild [2]; [26]): 80
Plant response rating, Blackgrass (blackgrass [3]; [23]): 30
Plant response rating, Blackgrass (blackgrass [3]; [24]): 60
Plant response rating, Goosegrass (goosegrass [4]; [23]): 0
Plant response rating, Goosegrass (goosegrass [4]; [24]): 60
Plant response rating, Kochia (kochia [5]; [23]): 10
Plant response rating, Kochia (kochia [5]; [24]): 80
Plant response rating, Ragweed (ragweed [6]; [23]): 0
Plant response rating, Ragweed (ragweed [6]; [24]): 30
Plant response rating, Barnyardgrass (barnyardgrass): 0
Plant response rating, Corn (corn [7]; [25]): 0
Plant response rating, Corn (corn [7]; [26]): 20
Plant response rating, Soybean (soybean [8]; [25]): 20
Plant response rating, Soybean (soybean [8]; [26]): 90
Plant response rating, Pigweed, Palmer (pigweed, palmer [9]; [25]): 30
Plant response rating, Pigweed, Palmer (pigweed, palmer [9]; [26]): 70
Plant response rating, Ryegrass, Italian (ryegrass, Italian [10]; [23]): 50
Plant response rating, Ryegrass, Italian (ryegrass, Italian [10]; [24]): 80
Plant response rating, Rice (rice): 0
Plant response rating, Wheat (wheat [11]; [25]): 0
Plant response rating, Wheat (wheat [11]; [26]): 60
Plant response rating, Sedge, Umbrella (sedge, umbrella): 0
Plant response rating, Wheat (wheat [12]; [23]): 10
Plant response rating, Wheat (wheat [12]; [24]): 40
Plant response rating, Corn (corn [13]; [23]): 10
Plant response rating, Corn (corn [13]; [24]): 20
Plant response rating, Ragweed (ragweed [14]; [25]): 0
Plant response rating, Ragweed (ragweed [14]; [26]): 0
Plant response rating, Kochia (kochia [15]; [25]): 0
Plant response rating, Kochia (kochia [15]; [26]): 20
Plant response rating, Ducksalad (ducksalad): 0
Plant response rating, Galium (galium; [23]): 80
Plant response rating, Galium (galium; [24]): 90
Plant response rating, Oat, Wild (oat, wild [16]; [23]): 0
Plant response rating, Oat, Wild (oat, wild [16]; [24]): 20
Plant response rating, Goosegrass (goosegrass [17]; [25]): 70
Plant response rating, Goosegrass (goosegrass [17]; [26]): 100
Plant response rating, Foxtail, Giant (foxtail, giant [18]; [25]): 70
Plant response rating, Foxtail, Giant (foxtail, giant [18]; [26]): 100
Plant response rating, Blackgrass (blackgrass [19]; [25]): 50
Plant response rating, Blackgrass (blackgrass [19]; [26]): 80
Plant response rating, Ryegrass, Italian (ryegrass, Italian [20]; [25]): 70
Plant response rating, Ryegrass, Italian (ryegrass, Italian [20]; [26]): 90
Plant response rating, Pigweed, Palmer (pigweed, palmer [21]; [23]): 30
Plant response rating, Pigweed, Palmer (pigweed, palmer [21]; [24]): 10
Plant response rating, Soybean (soybean [22]; [23]): 100
Plant response rating, Soybean (soybean [22]; [24]): 100
